These results are taken from ChEMBL document CHEMBL1201862, “PubChem BioAssay data set” (2004).

Assay [1] is described as follows: HEK-293T cell viability reduction – luminescence, B-cell screen hits, cytotoxicity control for BCR NF-kB inhibitor project, dose response (AID 489021).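 Also: HEK-293T cells carrying an NF-kB luciferase reporter; cells exposed to compound for about 14 hours before viability readout.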 It counts as functional, cell-based.
The target in assay [2] is G-protein coupled receptor 55 (Homo sapiens, UniProt Q9Y2T6). Briefly: inhibition of LPI-stimulated GPR55 beta-arrestin translocation – imaging, U2OS, beta-arrestin-GFP, LPI agonist, primary screen (AID 2013).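 Also: antagonist potency measured as reduced agonist-driven arrestin aggregation.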 It counts as functional.
Sequence of G-protein coupled receptor 55 (Q9Y2T6 whole entry): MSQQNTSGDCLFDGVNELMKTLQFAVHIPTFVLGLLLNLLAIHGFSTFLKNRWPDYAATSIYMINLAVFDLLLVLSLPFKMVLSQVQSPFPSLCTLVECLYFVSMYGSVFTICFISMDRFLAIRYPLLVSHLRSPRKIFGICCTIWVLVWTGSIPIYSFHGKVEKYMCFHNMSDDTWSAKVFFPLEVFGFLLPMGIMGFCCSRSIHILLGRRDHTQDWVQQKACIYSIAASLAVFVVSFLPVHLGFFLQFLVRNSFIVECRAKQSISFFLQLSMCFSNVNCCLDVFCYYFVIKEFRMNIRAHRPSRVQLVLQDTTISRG
Assay [3] deals with INS1. Briefly: INS-1E survival protection against cytokine death – cell-based, luminescence, retest, dose response (AID 449756).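 Also: cell death triggered by IL-1 beta plus TNF-alpha plus IFN-gamma mixture; protective hits raise ATP signal compared with cytokine alone wells.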 It counts as functional. The following applies: Rattus norvegicus.
The target of assay [4] is Luciferin 4-monooxygenase (Photinus pyralis, UniProt P08659). Briefly: inhibition of purified Photinus pyralis luciferase – biochemical, luminescence, dose response (AID 1891).
Sequence of Luciferin 4-monooxygenase (P08659 whole entry): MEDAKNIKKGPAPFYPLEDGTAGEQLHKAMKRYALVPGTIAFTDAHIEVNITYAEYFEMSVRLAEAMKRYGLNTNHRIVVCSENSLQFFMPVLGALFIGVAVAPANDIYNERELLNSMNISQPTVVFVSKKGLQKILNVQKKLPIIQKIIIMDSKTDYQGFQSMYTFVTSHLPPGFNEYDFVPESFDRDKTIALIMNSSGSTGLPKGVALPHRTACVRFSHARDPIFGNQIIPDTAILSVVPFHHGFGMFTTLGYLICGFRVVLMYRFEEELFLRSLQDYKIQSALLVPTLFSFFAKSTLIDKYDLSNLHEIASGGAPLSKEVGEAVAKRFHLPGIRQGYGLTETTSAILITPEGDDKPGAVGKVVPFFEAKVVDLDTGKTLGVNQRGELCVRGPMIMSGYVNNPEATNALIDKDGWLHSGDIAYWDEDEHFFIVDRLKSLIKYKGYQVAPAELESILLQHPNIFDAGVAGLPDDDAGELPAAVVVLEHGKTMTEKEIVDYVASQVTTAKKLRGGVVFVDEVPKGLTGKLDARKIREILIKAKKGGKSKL
The nature of assay [5]: A549 cell cytotoxicity, dose response, cytotoxicity control, plate reader, cherry-pick, antagonist series (AID 743412). It counts as functional, cell-based.
A short description of assay [6]: HepG2 cell cytotoxicity, dose response, cytotoxicity control for non-replicating M. tuberculosis project (AID 489018). The format is functional. The following applies: Mycobacterium tuberculosis.
A short description of assay [7]: Luminescence Cell-Based Dose Confirmation HTS to Identify Inhibitors of Platelet Dense Granule Release. [Related pubchem assays: 1663 (Primary HTS), 1678 (Summary of Project)]. It counts as functional.
Assay [8] can be described thus: THP-1 cell cytotoxicity, dose response, cytotoxicity control for non-replicating M. tuberculosis project (AID 489025). It counts as functional.
The subject of assay [9] is Streptococcus. Briefly: GAS UMAA2166 growth inhibition – luminescence, BacTiterGlo, counter-screen for streptokinase expression inhibitor project, dose response (AID 1915).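 Also: potency for reduction of bacterial viability or growth.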 It counts as functional, organism-based.
The target in assay [10] is T1, Kappa-type opioid receptor (Homo sapiens, UniProt P41145). The format is functional.
T1 sequence (P41145 whole entry): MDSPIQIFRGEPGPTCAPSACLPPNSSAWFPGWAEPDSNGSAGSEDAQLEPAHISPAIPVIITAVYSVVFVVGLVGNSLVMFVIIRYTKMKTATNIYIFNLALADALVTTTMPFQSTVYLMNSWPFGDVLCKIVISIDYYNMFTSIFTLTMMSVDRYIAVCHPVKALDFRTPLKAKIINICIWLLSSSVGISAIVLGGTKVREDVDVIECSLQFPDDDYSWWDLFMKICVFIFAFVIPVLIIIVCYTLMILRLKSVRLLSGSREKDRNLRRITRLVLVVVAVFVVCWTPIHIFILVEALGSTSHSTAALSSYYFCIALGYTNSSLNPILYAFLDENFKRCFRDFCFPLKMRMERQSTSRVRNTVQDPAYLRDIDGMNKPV
The nature of assay [11]: blockade of melanocortin 4 receptor signaling – cell-based, plate reader, cherry pick, counter-screen for LGR2 antagonist project, dose response (AID 743444).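 Also: transfected HEK 293 cells stimulated with alpha-MSH peptide; potency of inhibitors of the alpha-MSH evoked signal.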 The format is functional. (In general: The purpose of a counterscreen is to sort out artefacts and off-target activity.)
For assay [12], the system named is Vero. Briefly: cells. The format is functional. The settings on record: Chlorocebus sabaeus.
The nature of assay [13]: toxicity toward HepG2 liver cells – cell-based, plate reader, cherry-pick, antagonist series, cytotoxicity control, dose response (AID 743416). The format is functional.
Assay [14] has as its target T1, Kappa-type opioid receptor. It counts as functional. The source holds these as a separate data set.
Assay [15] deals with Streptococcus sp. 'group A'. Briefly: Streptococcus pyogenes SK(-)GAS viability under kanamycin – luminescence, BacTiterGlo, confirmation, counter-screen for streptokinase expression inhibitor project, dose response (AID 1900). It counts as functional, organism-based.
A short description of assay [16]: cells. The format is functional.
A short description of assay [17]: Vero E6 cell cytotoxicity, dose response, cytotoxicity control for non-replicating M. tuberculosis project, secondary assay (AID 492998). It counts as functional, VeroE6. The settings on record: Vero C1008.
Assay [18] in a line: blockers of bursicon-stimulated LGR2 cAMP reporter – cell-based, HEK293, CRE-luciferase reporter, cherry pick, set 2, dose response (AID 743343).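 Also: transfected cells were stimulated with diluted bursicon conditioned medium after compound addition.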 The format is functional. On the technique in general: In a reporter assay the amount or activity of a reporter protein is the signal.
Assay [19] can be described thus: viability loss in HEK293 cells – cell-based, plate reader, cherry-picked samples, cytotoxicity control, dose response (AID 743446). It counts as functional.
The target in assay [20] is Beta-galactosidase (Escherichia coli, UniProt Q8VNN2). The format is functional.
Sequence of Beta-galactosidase (Q8VNN2 whole entry): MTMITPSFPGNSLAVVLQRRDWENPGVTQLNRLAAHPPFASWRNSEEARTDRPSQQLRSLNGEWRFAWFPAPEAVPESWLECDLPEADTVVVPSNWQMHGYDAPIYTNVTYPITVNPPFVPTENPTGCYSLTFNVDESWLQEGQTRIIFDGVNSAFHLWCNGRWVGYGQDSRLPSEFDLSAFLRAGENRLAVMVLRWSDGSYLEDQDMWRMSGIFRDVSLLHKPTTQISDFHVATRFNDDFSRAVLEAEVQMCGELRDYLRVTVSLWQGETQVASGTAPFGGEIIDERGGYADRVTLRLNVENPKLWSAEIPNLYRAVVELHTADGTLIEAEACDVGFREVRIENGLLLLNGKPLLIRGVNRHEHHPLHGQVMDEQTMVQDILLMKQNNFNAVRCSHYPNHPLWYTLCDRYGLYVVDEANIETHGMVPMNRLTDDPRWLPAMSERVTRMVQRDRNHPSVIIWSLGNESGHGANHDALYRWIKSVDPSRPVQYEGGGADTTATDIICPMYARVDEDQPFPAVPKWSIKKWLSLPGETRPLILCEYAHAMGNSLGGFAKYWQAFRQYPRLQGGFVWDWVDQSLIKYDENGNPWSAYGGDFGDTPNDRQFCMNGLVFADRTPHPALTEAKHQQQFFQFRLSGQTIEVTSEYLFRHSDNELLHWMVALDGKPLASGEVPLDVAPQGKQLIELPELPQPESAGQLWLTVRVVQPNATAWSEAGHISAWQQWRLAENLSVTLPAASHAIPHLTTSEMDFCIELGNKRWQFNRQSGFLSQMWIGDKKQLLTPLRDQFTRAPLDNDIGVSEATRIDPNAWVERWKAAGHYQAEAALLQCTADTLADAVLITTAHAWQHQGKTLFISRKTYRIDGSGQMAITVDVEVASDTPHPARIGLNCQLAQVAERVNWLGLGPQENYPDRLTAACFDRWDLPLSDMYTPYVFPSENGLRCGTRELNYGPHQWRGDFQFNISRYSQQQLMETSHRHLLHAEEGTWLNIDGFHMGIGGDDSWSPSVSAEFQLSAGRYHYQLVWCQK
Assay [21] deals with H9c2. Kind of assay: cells. The format is functional, cell-based. The following applies: Rattus norvegicus, H9c2, Myocardium.
The target of assay [22] is T2, Eukaryotic translation initiation factor 2-alpha kinase 3 (Homo sapiens, UniProt Q9NZJ5).
T2 sequence (Q9NZJ5 whole entry): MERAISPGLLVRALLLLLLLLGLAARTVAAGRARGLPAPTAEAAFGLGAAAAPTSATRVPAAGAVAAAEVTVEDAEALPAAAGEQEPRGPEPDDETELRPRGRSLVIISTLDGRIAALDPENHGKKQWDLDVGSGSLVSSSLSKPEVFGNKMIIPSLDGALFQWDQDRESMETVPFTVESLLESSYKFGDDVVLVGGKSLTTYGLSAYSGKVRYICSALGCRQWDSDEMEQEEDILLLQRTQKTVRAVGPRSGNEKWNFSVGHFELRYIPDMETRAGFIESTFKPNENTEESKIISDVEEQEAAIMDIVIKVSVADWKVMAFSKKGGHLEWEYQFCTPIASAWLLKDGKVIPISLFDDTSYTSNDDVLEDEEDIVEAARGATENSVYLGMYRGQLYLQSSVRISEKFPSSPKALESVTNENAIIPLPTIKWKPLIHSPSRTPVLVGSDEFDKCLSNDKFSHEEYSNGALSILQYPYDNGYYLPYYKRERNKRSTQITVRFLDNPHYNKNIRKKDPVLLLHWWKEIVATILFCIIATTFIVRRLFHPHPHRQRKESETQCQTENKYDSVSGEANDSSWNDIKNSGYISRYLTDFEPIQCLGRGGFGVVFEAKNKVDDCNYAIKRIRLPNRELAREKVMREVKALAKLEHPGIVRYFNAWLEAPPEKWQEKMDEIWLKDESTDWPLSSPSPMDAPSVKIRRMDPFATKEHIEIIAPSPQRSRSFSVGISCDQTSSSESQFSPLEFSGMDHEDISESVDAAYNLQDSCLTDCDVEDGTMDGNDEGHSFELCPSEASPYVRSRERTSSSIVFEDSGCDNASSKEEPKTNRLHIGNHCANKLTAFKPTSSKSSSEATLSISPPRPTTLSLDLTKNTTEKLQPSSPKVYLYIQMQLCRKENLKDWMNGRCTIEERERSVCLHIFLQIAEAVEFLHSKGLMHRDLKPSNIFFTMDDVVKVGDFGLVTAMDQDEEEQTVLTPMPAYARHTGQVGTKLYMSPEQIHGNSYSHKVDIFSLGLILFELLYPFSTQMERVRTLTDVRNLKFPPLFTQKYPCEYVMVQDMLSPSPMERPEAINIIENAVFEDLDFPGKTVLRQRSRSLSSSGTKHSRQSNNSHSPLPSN
Kind of assay: Counterscreen assay for PERK inhibitors: Dose response cell-based high throughput screening assay to measure inhibition of PERK at 6 hours. [Related pubchem assays: 1522, 1416 ]. It counts as functional.

In assay [23] the target is T2, Eukaryotic translation initiation factor 2-alpha kinase 3. Kind of assay: Dose response cell-based high-throughput screening assay to measure PERK inhibition. [Related pubchem assays: 1416 ]. It counts as functional.
Assay [24] deals with Cytochrome P450 2C9 (Homo sapiens, UniProt P11712).
Sequence of Cytochrome P450 2C9 (P11712 whole entry): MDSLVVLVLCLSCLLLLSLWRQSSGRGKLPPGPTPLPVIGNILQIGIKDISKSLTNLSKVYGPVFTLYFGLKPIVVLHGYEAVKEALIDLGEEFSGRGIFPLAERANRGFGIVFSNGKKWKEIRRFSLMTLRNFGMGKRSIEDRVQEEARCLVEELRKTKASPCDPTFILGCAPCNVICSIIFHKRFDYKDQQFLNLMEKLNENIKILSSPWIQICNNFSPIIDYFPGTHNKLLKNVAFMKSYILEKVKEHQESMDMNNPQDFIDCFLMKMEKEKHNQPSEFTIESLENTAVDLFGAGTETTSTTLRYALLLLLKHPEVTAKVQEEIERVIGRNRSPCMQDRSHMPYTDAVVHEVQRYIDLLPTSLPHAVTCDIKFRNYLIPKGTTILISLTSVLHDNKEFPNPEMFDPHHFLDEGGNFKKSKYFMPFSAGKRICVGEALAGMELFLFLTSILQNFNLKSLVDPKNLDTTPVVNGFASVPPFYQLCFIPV
The target in assay [25] is Alkaline phosphatase, placental type (Homo sapiens, UniProt P05187). Briefly: human placental alkaline phosphatase inhibition – biochemical, luminescence, confirmation (AID 1512). It counts as functional.
Sequence of Alkaline phosphatase, placental type (P05187 whole entry): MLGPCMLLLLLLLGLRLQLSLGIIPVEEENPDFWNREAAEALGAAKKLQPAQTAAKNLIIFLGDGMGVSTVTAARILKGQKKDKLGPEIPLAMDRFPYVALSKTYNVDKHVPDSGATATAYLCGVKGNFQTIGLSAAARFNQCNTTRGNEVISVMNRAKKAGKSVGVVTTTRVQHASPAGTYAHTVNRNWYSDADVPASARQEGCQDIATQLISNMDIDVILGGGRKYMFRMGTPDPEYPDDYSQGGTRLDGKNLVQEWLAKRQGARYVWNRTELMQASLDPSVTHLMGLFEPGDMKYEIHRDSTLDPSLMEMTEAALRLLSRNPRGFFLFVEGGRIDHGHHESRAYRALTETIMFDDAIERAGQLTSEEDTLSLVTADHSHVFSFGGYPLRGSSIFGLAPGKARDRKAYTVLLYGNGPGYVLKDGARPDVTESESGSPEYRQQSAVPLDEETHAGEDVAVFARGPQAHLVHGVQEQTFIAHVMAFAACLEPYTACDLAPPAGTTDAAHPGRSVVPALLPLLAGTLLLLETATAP
Assay [26] relates to HEK293. Kind of assay: cells. It counts as functional, cell-based. The following applies: Homo sapiens.
Assay [27] has as its system HEK293. Briefly: inhibition of NOD1-driven NF-kB reporter – cell-based, luminescence, uHTS, primary screen (AID 1578). It counts as functional. The following applies: Homo sapiens.
In assay [28] the target is Tumor necrosis factor (Homo sapiens, UniProt P01375). Kind of assay: analog potency on TNFa NF-kB signaling – cell-based, revised, SAR follow-up (AID 2337). The format is functional.
Sequence of Tumor necrosis factor (P01375 whole entry): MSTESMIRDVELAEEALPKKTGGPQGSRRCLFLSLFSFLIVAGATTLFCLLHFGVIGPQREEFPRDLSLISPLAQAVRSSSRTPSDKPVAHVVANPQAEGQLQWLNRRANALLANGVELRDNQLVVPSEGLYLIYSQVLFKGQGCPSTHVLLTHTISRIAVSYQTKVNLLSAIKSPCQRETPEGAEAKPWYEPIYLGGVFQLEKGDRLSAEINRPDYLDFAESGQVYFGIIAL
In assay [29] the test system is HEK293. Kind of assay: cells. The following applies: Homo sapiens.
The subject of assay [30] is HEK293. Briefly: cells. The settings on record: Homo sapiens. It counts as functional, cell-based. This is another data set of the same source.
Assay [31] has as its system HEK293. Briefly: NOD2 signaling inhibitors in MDP-stimulated cells, cell-based, uHTS, luminescence (AID 2001). It counts as functional. The settings on record: Homo sapiens.
In assay [32] the target is Nucleotide-binding oligomerization domain-containing protein 1 (Homo sapiens, UniProt Q9Y239). Kind of assay: blockers of NOD1 pathway activity – revised, SAR follow-up (AID 2333). It counts as functional.
Sequence of Nucleotide-binding oligomerization domain-containing protein 1 (Q9Y239 whole entry, the tested form may be a part): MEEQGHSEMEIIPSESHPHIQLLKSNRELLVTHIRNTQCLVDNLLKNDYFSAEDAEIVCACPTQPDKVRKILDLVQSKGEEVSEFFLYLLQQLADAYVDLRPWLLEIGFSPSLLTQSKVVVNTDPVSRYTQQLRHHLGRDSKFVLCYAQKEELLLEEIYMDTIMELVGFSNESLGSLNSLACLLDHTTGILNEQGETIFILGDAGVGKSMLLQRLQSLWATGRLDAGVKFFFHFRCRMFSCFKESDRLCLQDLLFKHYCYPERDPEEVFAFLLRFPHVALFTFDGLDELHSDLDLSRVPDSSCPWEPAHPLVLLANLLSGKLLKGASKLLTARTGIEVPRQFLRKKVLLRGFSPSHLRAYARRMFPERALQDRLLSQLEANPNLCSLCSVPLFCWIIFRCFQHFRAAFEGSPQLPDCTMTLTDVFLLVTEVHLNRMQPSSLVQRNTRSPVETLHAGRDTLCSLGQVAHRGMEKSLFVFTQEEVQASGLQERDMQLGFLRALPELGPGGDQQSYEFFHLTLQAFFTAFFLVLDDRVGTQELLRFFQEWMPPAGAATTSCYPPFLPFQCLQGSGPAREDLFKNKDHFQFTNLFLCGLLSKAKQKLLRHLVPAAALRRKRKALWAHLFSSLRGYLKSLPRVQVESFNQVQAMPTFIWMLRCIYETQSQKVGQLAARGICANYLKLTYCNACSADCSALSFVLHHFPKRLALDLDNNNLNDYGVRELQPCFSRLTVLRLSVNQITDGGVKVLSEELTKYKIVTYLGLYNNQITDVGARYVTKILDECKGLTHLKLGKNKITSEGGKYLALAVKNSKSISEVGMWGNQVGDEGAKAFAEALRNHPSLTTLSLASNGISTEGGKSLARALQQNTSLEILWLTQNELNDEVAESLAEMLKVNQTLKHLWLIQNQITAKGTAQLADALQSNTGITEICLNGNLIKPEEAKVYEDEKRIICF

Where “and” joins values, the source holds several entries; their conditions need not be identical. Equal values may be shown once. Calls of active or inactive are those of the source.

For `O=C(CCCN1C(=O)S/C(=C\C=C\c2ccccc2)C1=O)Nc1ccc(O)cc1`, the IC50 (in general, the concentration at which inhibition is half-maximal) in assay [1] was > 80 µM (inactive).
As to `CCN1CC2=C(OC(N)=C(C#N)C2c2cccs2)/C(=C/c2cccs2)C1` (stereo not drawn), the IC50 in assay [2] was 5.29 µM (active).
Still for that read-out and setting: for `C=CCn1c(S)nnc1CCc1cc(C(C)(C)C)c(O)c(C(C)(C)C)c1` the value was 3 µM (active).
Regarding `CCOc1ccc2nc(NC(=O)c3ccccn3)sc2c1`, the AC50 (commonly the midpoint of the concentration-response curve, whichever way the signal moves) was 3.32 µM (active) in assay [3]; 3.99 µM (active) in [5]; 2.42 µM (active) in [11]; 5.82 µM (active) in assay [13]; 2 µM (active) in [18]; 8.52 µM (active) in assay [19]. For the same compound, the EC50 (commonly the concentration that produces a half-maximal response) in assay [4] is 0.407 µM (active); in assay [7], 5.58 µM (active); in assay [9], 7.36 µM (active); in [15] it was 2.98 µM (active); in assay [20], > 31.5 µM (inactive). In addition, the half-maximal cytotoxic concentration (CC50) (in general, the concentration at which the toxic effect on the cells reaches its halfway point) is 19.3 µM (active) in assay [6], 8.2 µM (active) in assay [8], 20.4 µM (active) in assay [12] and 7.54 µM (active) in assay [17]. For the same compound, the results for the IC50 in assay [10], in [14] and in [16] were more than 32 µM, 6.51 µM (active) and 0.43 µM (active), respectively.
With `COC(=O)Cc1nnc(O)c2ccccc12`, the IC50 in assay [21] is > 79 µM (inactive). For the same compound, the EC50 in assay [22] and in assay [23] was > 55.7 µM (not active) each time.
`O=C(CCc1ccccc1)Nc1nnc[nH]1`: the AC50 in [24] is 39.8 µM (inconclusive). The IC50 in assay [25] was > 100 µM (inactive).
With `CCOC(=O)c1ccc(NC(=O)c2ccc(CN3CCc4ccccc4C3)cc2)cc1`, the IC50 in [26] was > 20 µM (inactive); in assay [28], 1.4 µM (active) and 140 nM (active); in [29] it was > 20 µM (inactive); in assay [30] it was < 0.312 µM (active); in assay [31], 1.3 µM (inactive); in assay [32] it was 335 nM (active) and 152 nM (active). For the same compound, the EC50 in [27] was 0.85 µM (active).
